Experimental findings from US12649722B2, “Herbicidal cinnoline derivatives” (SYNGENTA CROP PROTECTION AG, priority 2020, dated 2026) are described below.

SMILES strings stand for the structures.

Type in all cases: in vivo
The subject of experiment [1] is Amaranthus retoflexus (AMARE). Nature of the experiment: Pre-emergence Test, AMARE. As to conditions: 1000 g/ha, evaluated after 13 days.
Experiment [2] deals with Ipornoea hederacea (IPOHE). Nature of the experiment: Pre-emergence Test, IPOHE. As to conditions: 1000 g/ha, evaluated after 13 days.
The test system of experiment [3] is Echinochloa crus-galli (ECHCG). Nature of the experiment: Pre-emergence Test, ECHCG. As to conditions: 1000 g/ha, evaluated after 13 days.
The test system of experiment [4] is Setaria faberi (SETFA). Nature of the experiment: Pre-emergence Test, SETFA. As to conditions: 1000 g/ha, evaluated after 13 days.
Experiment [5] relates to ZEAMX. Nature of the experiment: Pre-emergence Test, ZEAMX. As to conditions: 1000 g/ha, evaluated after 13 days.
The test system of experiment [6] is ABUTH. Nature of the experiment: Pre-emergence Test, ABUTH. As to conditions: 1000 g/ha, evaluated after 13 days.
Experiment [7] has as its system Amaranthus retoflexus (AMARE). Nature of the experiment: Post-emergence Test, AMARE. As to conditions: sprayed after 8 days cultivation, 1000 g/ha, evaluated after 13 days. The method, then:
(§1) Seeds of a variety of test species are sown in standard soil in pots (Amaranthus retoflexus (AMARE), Solarium nigrum (SOLNI), Setaria faberi (SETFA), Lolium perenne (LOLPE), Echinochloa crus-galli (ECHCG), Ipornoea hederacea (IPOHE)). After 8 days cultivation under controlled conditions in a glasshouse (at 24° C./16° C., day/night; 14 hours light; 65% humidity), the plants are sprayed with an aqueous spray solution derived from the formulation of the technical active ingredient in acetone/water (50:50) solution containing 0.5% Tween 20 (polyoxyethylene sorbitan monolaurate, CAS RN 9005-64-5). Compounds are applied at 1000 g/ha unless otherwise stated. The test plants are then grown in a glasshouse under controlled conditions in a glasshouse (at 24° C./16° C., day/night; 14 hours light; 65% humidity) and watered twice daily. After 13 days the test is evaluated for the percentage damage caused to the plant. The biological activities are shown in the following table on a five-point scale (5=81-100%; 4=61-80%; 3=41-60%; 2=21-40%; 1=10-20%; 0=0%; −=not tested).

Experiment [8] has as its system Ipornoea hederacea (IPOHE). Nature of the experiment: Post-emergence Test, IPOHE. As to conditions: sprayed after 8 days cultivation, 1000 g/ha, evaluated after 13 days. How it is done: as §1
Experiment [9] deals with Echinochloa crus-galli (ECHCG). Nature of the experiment: Post-emergence Test, ECHCG. As to conditions: sprayed after 8 days cultivation, 1000 g/ha, evaluated after 13 days. The method, then:
as §1

Experiment [10] relates to Setaria faberi (SETFA). Nature of the experiment: Post-emergence Test, SETFA. As to conditions: sprayed after 8 days cultivation, 1000 g/ha, evaluated after 13 days. How it is done: as §1
Experiment [11] has as its system ZEAMX. Nature of the experiment: Post-emergence Test, ZEAMX. As to conditions: sprayed after 8 days cultivation, 1000 g/ha, evaluated after 13 days. The method, then:
[The procedure below names another target; the source lists this target under the same test.] as §1

Experiment [12] deals with ABUTH. Nature of the experiment: Post-emergence Test, ABUTH. As to conditions: sprayed after 8 days cultivation, 1000 g/ha, evaluated after 13 days. How it is done:
[The procedure below names another target; the source lists this target under the same test.] as §1

In the case of `C=Cc1cccc2c1c(=O)c(C(=O)O)nn2-c1ccc(OC(F)(F)F)cc1` [Compound P17, 4-oxo-1-[4-(trifluoromethoxy)phenyl]-5-vinyl-cinnoline-3-carboxylic acid], the “percentage damage caused to the plant, AMARE” value in experiment [1] and in experiment [7] was 2 (2=21-40%) throughout. Also, the “percentage damage caused to the plant, IPOHE” value in experiment [2] and in [8] was 0 (0=0%) each time. The figures for the “percentage damage caused to the plant, ECHCG” value in experiment [3] and in experiment [9] were 2 (2=21-40%) and 3 (3=41-60%), respectively. Also, the “percentage damage caused to the plant, SETFA” value in the experiment on Setaria faberi (SETFA) [4] and in the experiment on Setaria faberi (SETFA) [10] was 3 (3=41-60%) each time. For the same molecule, the “percentage damage caused to the plant, ZEAMX” value in the experiment with ZEAMX [5] and with ZEAMX [11] was 1 (1=10-20%) throughout. Further, the “percentage damage caused to the plant, ABUTH” value in the experiment with ABUTH [6] and in the experiment on ABUTH [12] was 1 (1=10-20%) in each case.
Take `CCOC(=O)c1nn(-c2ccc(OC(F)(F)F)cc2)c2cccc(CC=O)c2c1=O` [Compound P18, ethyl 4-oxo-5-(2-oxoethyl)-1-[4-(trifluoromethoxy)phenyl] cinnoline-3-carboxylate]: the “percentage damage caused to the plant, AMARE” value in experiment [1] and in [7] was 0 (0=0%) each time. The “percentage damage caused to the plant, IPOHE” value in experiment [2] is listed as 0 (0=0%); in experiment [8], 1 (1=10-20%). The “percentage damage caused to the plant, ECHCG” value in experiment [3] was 0 (0=0%); in experiment [9], 1 (1=10-20%). Moreover, the “percentage damage caused to the plant, SETFA” value in the experiment with Setaria faberi (SETFA) [4] and in the experiment on Setaria faberi (SETFA) [10] was 1 (1=10-20%) in each case. Also, the “percentage damage caused to the plant, ZEAMX” value is 0 (0=0%) in the experiment with ZEAMX [5] and 1 (1=10-20%) in the experiment with ZEAMX [11]. Further, the “percentage damage caused to the plant, ABUTH” value is 0 (0=0%) in the experiment on ABUTH [6] and 1 (1=10-20%) in the experiment with ABUTH [12].
Turning to `O=C(O)c1nn(-c2ccc(OC(F)(F)F)cc2)c2cccc(-n3cc(Cl)cn3)c2c1=O` [Compound P19], the results for the “percentage damage caused to the plant, AMARE” value in [1] and in [7] were 0 (0=0%) and 2 (2=21-40%), respectively. For the same molecule, the “percentage damage caused to the plant, IPOHE” value in experiment [2] was 0 (0=0%); in [8], 2 (2=21-40%). Further, the “percentage damage caused to the plant, ECHCG” value in experiment [3] and in experiment [9] was 3 (3=41-60%) throughout. The “percentage damage caused to the plant, SETFA” value in the experiment with Setaria faberi (SETFA) [4] and in the experiment with Setaria faberi (SETFA) [10] was 4 (4=61-80%) each time. Moreover, the results for the “percentage damage caused to the plant, ZEAMX” value with ZEAMX [5] and in the experiment with ZEAMX [11] were 1 (1=10-20%) and 2 (2=21-40%), respectively. The “percentage damage caused to the plant, ABUTH” value is 0 (0=0%) in the experiment with ABUTH [6] and 1 (1=10-20%) in the experiment with ABUTH [12].
On to `O=C(O)c1nn(-c2ccc(OC(F)(F)F)cc2)c2cccc(-n3cc(C(F)(F)F)nn3)c2c1=O` [Compound P21, 4-oxo-1-[4-(trifluoromethoxy)phenyl]-5-[4-(trifluoromethyl)triazol-1-yl]cinnoline-3-carboxylic acid], for which the “percentage damage caused to the plant, AMARE” value in [1] and in experiment [7] was 1 (1=10-20%) each time. In addition, the “percentage damage caused to the plant, IPOHE” value in [2] is listed as 1 (1=10-20%); in [8] it was 0 (0=0%). Further, the “percentage damage caused to the plant, ECHCG” value in experiment [3] was 1 (1=10-20%); in experiment [9] it was 0 (0=0%). The “percentage damage caused to the plant, SETFA” value in the experiment with Setaria faberi (SETFA) [4] and in the experiment on Setaria faberi (SETFA) [10] was 2 (2=21-40%) throughout. For the same molecule, the figures for the “percentage damage caused to the plant, ZEAMX” value in the experiment on ZEAMX [5] and with ZEAMX [11] were 0 (0=0%) and 1 (1=10-20%), respectively. The “percentage damage caused to the plant, ABUTH” value was 0 (0=0%) in the experiment with ABUTH [6] and 1 (1=10-20%) in the experiment with ABUTH [12].
Take `O=C(O)c1nn(-c2ccc(OC(F)(F)F)cc2)c2cccc(-n3cc(C(F)(F)F)cn3)c2c1=O` [Compound P22, 4-oxo-1-[4-(trifluoromethoxy)phenyl]-5-[4-(trifluoromethyl)pyrazol-1-yl]cinnoline-3-carboxylic acid]: the “percentage damage caused to the plant, AMARE” value in experiment [1] is given as 2 (2=21-40%); in experiment [7], 4 (4=61-80%). In addition, the “percentage damage caused to the plant, IPOHE” value was 0 (0=0%) in experiment [2] and 1 (1=10-20%) in experiment [8]. In addition, the “percentage damage caused to the plant, ECHCG” value in [3] and in experiment [9] was 0 (0=0%) throughout. In addition, the “percentage damage caused to the plant, SETFA” value in the experiment with Setaria faberi (SETFA) [4] is given as 0 (0=0%); in the experiment on Setaria faberi (SETFA) [10], 2 (2=21-40%). In addition, the “percentage damage caused to the plant, ZEAMX” value was 0 (0=0%) in the experiment with ZEAMX [5] and 2 (2=21-40%) with ZEAMX [11]. The “percentage damage caused to the plant, ABUTH” value with ABUTH [6] is 0 (0=0%); in the experiment with ABUTH [12], 1 (1=10-20%).
As for `O=C(O)c1nn(-c2ccc(OC(F)(F)F)cc2)c2cccc(N3CCCC3)c2c1=O` [Compound P23, 4-oxo-5-pyrrolidin-1-yl-1-[4-(trifluoromethoxy)phenyl] cinnoline-3-carboxylic acid], the “percentage damage caused to the plant, AMARE” value in experiment [1] and in experiment [7] was 0 (0=0%) each time. Besides, the “percentage damage caused to the plant, IPOHE” value in experiment [2] and in [8] was 0 (0=0%) throughout. The “percentage damage caused to the plant, ECHCG” value in experiment [3] and in experiment [9] was 0 (0=0%) in each case. Further, the “percentage damage caused to the plant, SETFA” value in the experiment on Setaria faberi (SETFA) [4] and in the experiment on Setaria faberi (SETFA) [10] was 0 (0=0%) each time. The “percentage damage caused to the plant, ZEAMX” value in the experiment on ZEAMX [5] and with ZEAMX [11] was 0 (0=0%) throughout. Further, the “percentage damage caused to the plant, ABUTH” value with ABUTH [6] and in the experiment on ABUTH [12] was 0 (0=0%) each time.
In the case of `O=C(O)c1nn(-c2ccc(OC(F)(F)F)cc2)c2cccc(N3CCCCC3)c2c1=O` [Compound P24, 4-oxo-5-(1-piperidyl)-1-[4-(trifluoromethoxy)phenyl] cinnoline-3-carboxylic acid], the “percentage damage caused to the plant, AMARE” value in experiment [1] and in [7] was 0 (0=0%) throughout. Also, the “percentage damage caused to the plant, IPOHE” value in experiment [2] and in experiment [8] was 0 (0=0%) throughout. The results for the “percentage damage caused to the plant, ECHCG” value in experiment [3] and in experiment [9] were 1 (1=10-20%) and 0 (0=0%), respectively. For the same molecule, the “percentage damage caused to the plant, SETFA” value in the experiment with Setaria faberi (SETFA) [4] and with Setaria faberi (SETFA) [10] was 0 (0=0%) each time. The “percentage damage caused to the plant, ZEAMX” value with ZEAMX [5] and in the experiment with ZEAMX [11] was 0 (0=0%) each time. In addition, the “percentage damage caused to the plant, ABUTH” value with ABUTH [6] and in the experiment with ABUTH [12] was 1 (1=10-20%) throughout.
